This note sets out measurements from patent US20240336574A1 (LATIGO BIOTHERAPEUTICS, INC., priority 2021, published 2024).

Molecules are shown by their SMILES. pIC50: −log10 of the molar value. Where two headings read alike, the source gives them in different places.

The assay deals with T1, recombinant human NaV1.8 stably transfected HEK cells (Homo sapiens, UniProt Q9Y5Y9).
T1 construct: expressed in transfected cells; host or cells: HEK cells, stably transfected
The assay is described as follows: Compound profiling on NaV1.8, human NaV1.8 cell line, SyncroPatch384PE automated patch clamp assay (Example 102, first set of compounds, Table 16). The class given is cell-based. The settings on record: human NaV1.8 HEK cells, Table 16 (first set of compounds). The procedure, abridged: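 IC50s come from two read-outs: resting-state block (P1, 10 mV step from −120 mV) and inactivated-state block (P2, after 10 s at −40 mV), scaled between DMSO and 250 μM tetracaine. Compounds (20–0.001 μM final, 1:3 steps) were applied for 5 min, 15 s sweeps. Cells kept at 30 °C the day before.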

The mark [1] stands for this setting: inactivated state block (P2 measurement), read-out: P2IC50.
[2] abbreviates: resting state block (P1 measurement), read-out: P1IC50.

T1 sequence (Q9Y5Y9 whole entry): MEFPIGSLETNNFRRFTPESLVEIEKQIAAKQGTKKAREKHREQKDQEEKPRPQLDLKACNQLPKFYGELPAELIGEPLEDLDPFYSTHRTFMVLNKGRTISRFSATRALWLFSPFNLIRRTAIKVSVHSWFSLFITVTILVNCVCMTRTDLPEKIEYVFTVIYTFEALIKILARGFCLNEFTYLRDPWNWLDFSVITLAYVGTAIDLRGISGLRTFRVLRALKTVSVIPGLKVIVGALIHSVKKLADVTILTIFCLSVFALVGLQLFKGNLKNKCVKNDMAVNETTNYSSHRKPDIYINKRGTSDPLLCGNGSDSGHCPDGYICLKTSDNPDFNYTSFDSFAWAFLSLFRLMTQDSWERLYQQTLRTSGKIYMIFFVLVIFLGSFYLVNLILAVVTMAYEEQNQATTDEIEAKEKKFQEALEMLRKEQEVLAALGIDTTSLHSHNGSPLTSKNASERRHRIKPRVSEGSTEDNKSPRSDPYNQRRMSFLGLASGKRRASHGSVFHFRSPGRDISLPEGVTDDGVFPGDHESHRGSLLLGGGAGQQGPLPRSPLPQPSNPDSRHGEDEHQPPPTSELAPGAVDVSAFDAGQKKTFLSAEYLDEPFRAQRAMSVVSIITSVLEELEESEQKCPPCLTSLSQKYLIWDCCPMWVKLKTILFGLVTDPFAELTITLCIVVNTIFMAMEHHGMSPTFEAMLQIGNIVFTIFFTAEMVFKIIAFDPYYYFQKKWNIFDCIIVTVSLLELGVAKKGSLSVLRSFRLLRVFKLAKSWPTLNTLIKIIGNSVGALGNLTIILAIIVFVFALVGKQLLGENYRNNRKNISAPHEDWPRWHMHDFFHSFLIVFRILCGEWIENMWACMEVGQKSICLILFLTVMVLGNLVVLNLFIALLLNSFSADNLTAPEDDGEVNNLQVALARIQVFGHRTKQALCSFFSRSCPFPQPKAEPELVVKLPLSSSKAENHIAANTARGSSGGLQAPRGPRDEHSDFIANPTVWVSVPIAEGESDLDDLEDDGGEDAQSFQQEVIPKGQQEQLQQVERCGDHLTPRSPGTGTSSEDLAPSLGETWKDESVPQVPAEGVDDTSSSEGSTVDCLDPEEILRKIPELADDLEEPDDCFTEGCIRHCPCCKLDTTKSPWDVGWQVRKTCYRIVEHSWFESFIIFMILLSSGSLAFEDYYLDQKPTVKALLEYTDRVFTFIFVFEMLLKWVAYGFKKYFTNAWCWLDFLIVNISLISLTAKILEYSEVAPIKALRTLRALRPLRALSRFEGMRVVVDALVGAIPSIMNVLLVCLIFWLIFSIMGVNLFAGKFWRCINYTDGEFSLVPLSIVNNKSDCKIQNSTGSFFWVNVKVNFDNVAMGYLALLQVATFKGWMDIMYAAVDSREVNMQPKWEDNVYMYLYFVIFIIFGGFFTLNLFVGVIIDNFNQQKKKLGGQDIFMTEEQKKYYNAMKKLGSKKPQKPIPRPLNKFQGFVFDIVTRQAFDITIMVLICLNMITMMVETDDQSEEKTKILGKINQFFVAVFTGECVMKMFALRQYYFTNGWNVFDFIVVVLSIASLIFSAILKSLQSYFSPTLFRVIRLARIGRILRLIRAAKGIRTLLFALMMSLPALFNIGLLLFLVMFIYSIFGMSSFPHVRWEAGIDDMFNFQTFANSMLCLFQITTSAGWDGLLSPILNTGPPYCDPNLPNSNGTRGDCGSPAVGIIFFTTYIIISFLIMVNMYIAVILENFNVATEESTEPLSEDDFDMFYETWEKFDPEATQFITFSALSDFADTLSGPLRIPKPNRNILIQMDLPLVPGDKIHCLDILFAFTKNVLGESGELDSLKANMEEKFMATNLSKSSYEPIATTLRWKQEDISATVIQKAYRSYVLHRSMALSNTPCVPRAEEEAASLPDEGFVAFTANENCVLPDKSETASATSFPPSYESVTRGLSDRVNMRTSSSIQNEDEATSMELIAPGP

Regarding `COc1c(Oc2nnc(C(F)(F)F)c(C)c2C(=O)Nc2ccn3nnnc3c2)ccc(F)c1F` [Compound 1551, 3-(3,4-difluoro-2-methoxy-phenoxy)-5-methyl-N-(tetrazolo[1,5-a]pyridin-7-yl)-6-(trifluoromethyl)pyridazine-4-carboxamide], the pIC50 is, setting by setting: under setting [1], no less than 7.70; under setting [2], no less than 7.70.

In the case of `COC(=O)C12CC(NC(=O)c3cc(C(F)(F)F)cnc3Oc3ccc(F)c(F)c3OC)(C1)C2` [Compound 1679], the pIC50 was 6.30 to 6.70 under setting [1] and 6.30 to 6.70 under setting [2].

Turning to `COc1cc(C#N)ccc1Oc1nnc(-c2ccc(C(F)F)cc2)c(C)c1C(=O)Nc1cccc(S(C)(=N)=O)c1` (centres unmarked) [Compound 1453, 3-(4-cyano-2-methoxy-phenoxy)-6-[4-(difluoromethyl)phenyl]-5-methyl-N-[3-(methylsulfonimidoyl)phenyl]pyridazine-4-carboxamide], the pIC50 was no less than 7.70 under setting [1] and no less than 7.70 under setting [2].

As to `CS(=O)(=O)c1cccc(NC(=O)c2cc(C(F)(F)F)cnc2Oc2ccc(OC(F)F)cc2)c1` [Compound 1563, 2-[4-(difluoromethoxy)phenoxy]-N-(3-methylsulfonylphenyl)-5-(trifluoromethyl)pyridine-3-carboxamide], the pIC50 is 7.40 to 7.70 under setting [1] and 7.40 to 7.70 under setting [2].

For `Cc1c(Oc2ncc(C(F)(F)F)cc2C(=O)Nc2cccc(S(C)(=N)=O)c2)ccc(OC(F)(F)F)c1F` (centres unmarked) [Compound 1712], the pIC50 was no less than 7.70 under setting [1] and no less than 7.70 under setting [2].

On to `COc1c(Oc2nnc(C(F)(F)F)c(C)c2C(=O)Nc2cccc(C(N)=O)c2)ccc(F)c1F` [Compound 1549, N-(3-carbamoylphenyl)-3-(3,4-difluoro-2-methoxy-phenoxy)-5-methyl-6-(trifluoromethyl)pyridazine-4-carboxamide], for which the pIC50 reads like this: under setting [1], no less than 7.70; under setting [2], no less than 7.70.

Turning to `Cc1c(C(F)(F)F)nnc(Oc2ccc(OC(F)(F)F)cc2F)c1C(=O)Nc1cccc(S(C)(=N)=O)c1` (single isomer, unassigned) [Compound 1496, 3-[2-fluoro-4-(trifluoromethoxy)phenoxy]-N-{3-[imino(methyl)oxo-λ^6-sulfanyl]phenyl}-5-methyl-6-(trifluoromethyl)pyridazine-4-carboxamide], the pIC50 under setting [1] was no less than 7.70 and the pIC50 under setting [2] is no less than 7.70.

As for `CC(C#N)Oc1cc(F)c(Oc2ncc(C(F)(F)F)cc2C(=O)Nc2ccc(C(N)=O)cc2)cc1F` (centres unmarked) [Compound 1688], the pIC50 by setting is: under setting [1], 6.30 to 6.70; under setting [2], 6.30 to 6.70.

In the case of `COc1c(Oc2ncc(Br)cc2C(=O)Nc2ccc(C(N)=O)cc2)ccc(F)c1F` [Compound 1569, 5-bromo-N-(4-carbamoylphenyl)-2-(3,4-difluoro-2-methoxy-phenoxy)pyridine-3-carboxamide], the pIC50 is, setting by setting: under setting [1], no less than 7.70; under setting [2], no less than 7.70.

With `Cc1c(C(F)(F)F)nnc(Oc2ccc(OC(C)C)c(F)c2F)c1C(=O)Nc1cccc(S(C)(=N)=O)c1` (single isomer, unassigned) [Compound 1502, 3-(2,3-difluoro-4-isopropoxyphenoxy)-5-methyl-N-(3-(S-methylsulfonimidoyl)phenyl)-6-(trifluoromethyl)pyridazine-4-carboxamide], the pIC50 by setting is: under setting [1], no less than 7.70; under setting [2], no less than 7.70.

In the case of `Cc1cc(F)ccc1Oc1nnc(C(F)(F)F)c(N2CCOCC2)c1C(=O)Nc1cccc([S@@](C)(=N)=O)c1` [Compound 1524, (S)-3-(4-fluoro-2-methylphenoxy)-N-(3-(S-methylsulfonimidoyl)phenyl)-5-morpholino-6-(trifluoromethyl)pyridazine-4-carboxamide], the pIC50 reads like this: under setting [1], 6.30 to 6.70; under setting [2], 6.30 to 6.70.

As for `COc1c(Oc2nccc(C(F)(F)F)c2C(=O)Nc2cccc(S(C)(=N)=O)c2)ccc(F)c1F` (centres unmarked) [Compound 1651], the pIC50 runs as follows: under setting [1], no less than 7.70; under setting [2], no less than 7.70.

For `COc1cc(C#N)ccc1Oc1nnc(C(F)(F)F)c(C)c1C(=O)Nc1cccc(C(=O)NC2CCCC2C#N)c1` (centres unmarked) [Compound 1445, N-[3-[(2-cyanocyclopentyl)carbamoyl]phenyl]-3-(4-cyano-2-methoxy-phenoxy)-5-methyl-6-(trifluoromethyl)pyridazine-4-carboxamide], the pIC50 under setting [1] is 6.30 to 6.70 and the pIC50 under setting [2] is 6.30 to 6.70.

As to `CCOC(=O)c1cc(NC(=O)c2c(Oc3ccc(F)cc3C)nnc(C(F)(F)F)c2C)cc(S(C)(=O)=O)c1` [Compound 1429], the pIC50 runs as follows: under setting [1], 6.30 to 6.70; under setting [2], 6.30 to 6.70.

For the molecule `COc1cc(C#N)ccc1Oc1nccc(C(F)(F)F)c1C(=O)Nc1cccc(S(C)(=N)=O)c1` (centres unmarked) [Compound 1653], the pIC50 runs as follows: under setting [1], 6.70 to 7.40; under setting [2], 6.70 to 7.40.

On to `CC(C)Oc1ccc(Oc2ncc(C(F)(F)F)cc2C(=O)Nc2cccc(S(C)(=N)=O)c2)c(F)c1F` (centres unmarked) [Compound 1707], for which the pIC50 was no less than 7.70 under setting [1] and no less than 7.70 under setting [2].

For `Cc1c(C(F)(F)F)nnc(Oc2ccc(OC(F)F)c(F)c2F)c1C(=O)Nc1cccc(S(C)(=N)=O)c1` (single isomer, unassigned) [Compound 1512, 3-[4-(difluoromethoxy)-2,3-difluorophenoxy]-N-{3-[imino(methyl)oxo-λ^6-sulfanyl]phenyl}-5-methyl-6-(trifluoromethyl)pyridazine-4-carboxamide], under setting [2], the pIC50 is no less than 7.70.

Consider `CSc1cccc(NC(=O)c2cc(Br)cnc2Oc2ccc(F)cc2C)c1` [Compound 1577], for which the pIC50 runs as follows: under setting [1], 6.30 to 6.70; under setting [2], 6.30 to 6.70.

For the molecule `COc1cc(C#N)ccc1Oc1nnc(-c2cncs2)c(C)c1C(=O)Nc1cccc(S(C)(=N)=O)c1` (centres unmarked) [Compound 1460, 3-(4-cyano-2-methoxy-phenoxy)-5-methyl-N-[3-(methylsulfonimidoyl)phenyl]-6-thiazol-5-yl-pyridazine-4-carboxamide], the pIC50 is, setting by setting: under setting [1], 6.30 to 6.70; under setting [2], 6.30 to 6.70.

As to `Cc1cc(C(F)(F)F)c(C)cc1Oc1ncc(C(F)(F)F)cc1C(=O)Nc1cccc(S(C)(=O)=O)c1` [Compound 1616], the pIC50 under setting [1] is 6.30 to 6.70 and the pIC50 under setting [2] was 6.30 to 6.70.

Take `COc1cc(C#N)ccc1Oc1ncc(C(F)(F)F)cc1C(=O)NC12CC(C(N)=O)(C1)C2` [Compound 1721, N-(3-carbamoyl-1-bicyclo[1.1.1]pentanyl)-2-(4-cyano-2-methoxy-phenoxy)-5-(trifluoromethyl)pyridine-3-carboxamide]: the pIC50 under setting [1] was 6.30 to 6.70 and the pIC50 under setting [2] is 6.30 to 6.70.

For `COc1cc(C#N)ccc1Oc1nnc(C(F)(F)F)c(C)c1C(=O)Nc1cccc(C(=O)N2CC(C#N)C2)c1` [Compound 1442, N-[3-(3-cyanoazetidine-1-carbonyl)phenyl]-3-(4-cyano-2-methoxy-phenoxy)-5-methyl-6-(trifluoromethyl)pyridazine-4-carboxamide], the pIC50 under setting [1] is 6.30 to 6.70 and the pIC50 under setting [2] is 6.30 to 6.70.

Consider `CC(C)Oc1ccc(Oc2ncc(C(F)(F)F)cc2C(=O)Nc2ccc(C(N)=O)cc2)c(F)c1` [Compound 1710], for which the pIC50 runs as follows: under setting [1], 6.30 to 6.70; under setting [2], 6.30 to 6.70.

For `Cc1c(Oc2nnc(C(F)(F)F)c(C)c2C(=O)Nc2cccc(S(C)(=O)=O)c2)ccc(Cl)c1F` [Compound 1421], the pIC50 reads like this: under setting [1], no less than 7.70; under setting [2], no less than 7.70.

Consider `NC(=O)c1cccc(NC(=O)c2cc(C(F)(F)F)cnc2OC2CC(C(F)(F)F)C2)c1` (mixture of isomers) [Compound 1667], for which the pIC50 is, setting by setting: under setting [1], 6.30 to 6.70; under setting [2], 6.30 to 6.70.

Take `CS(=O)(=O)c1cccc(NC(=O)c2cc(C(F)(F)F)cnc2Oc2ccn3ccnc3c2)c1` [Compound 1597]: the pIC50 under setting [1] is 6.30 to 6.70 and the pIC50 under setting [2] was 6.30 to 6.70.

For `COc1cc(C#N)ccc1Oc1nnc(-c2ccc(C)cc2)c(C)c1C(=O)Nc1cccc([S@](C)(=N)=O)c1` [Compound 1529, 3-(4-cyano-2-methoxyphenoxy)-N-{3-[(R)-imino(methyl)oxo-λ6-sulfanyl]phenyl}-5-methyl-6-(4-methylphenyl)pyridazine-4-carboxamide], the pIC50 under setting [1] was no less than 7.70 and the pIC50 under setting [2] was no less than 7.70.

`COc1cc(C#N)ccc1Oc1nnc(C(F)(F)F)c(C)c1C(=O)Nc1cccc(S(N)(=O)=O)c1` [Compound 1418]: the pIC50 under setting [1] was no less than 7.70 and the pIC50 under setting [2] was no less than 7.70.

Take `COCCNC(=O)c1cccc(NC(=O)c2c(Oc3ccc(C#N)cc3OC)nnc(C(F)(F)F)c2C)c1` [Compound 1443, 3-(4-cyano-2-methoxy-phenoxy)-N-[3-(2-methoxyethylcarbamoyl)phenyl]-5-methyl-6-(trifluoromethyl)pyridazine-4-carboxamide]: the pIC50 is 6.30 to 6.70 under setting [1] and 6.30 to 6.70 under setting [2].

In the case of `COc1ccc(-c2nnc(Oc3ccc(C#N)cc3OC)c(C(=O)Nc3cccc([S@](C)(=N)=O)c3)c2C)cn1` [Compound 1733, (R)-3-(4-cyano-2-methoxyphenoxy)-6-(6-methoxypyridin-3-yl)-5-methyl-N-(3-(S-methylsulfonimidoyl)phenyl)pyridazine-4-carboxamide], the pIC50 under setting [1] is 6.70 to 7.40 and the pIC50 under setting [2] is 6.30 to 6.70.

As for `COc1ccc(Oc2nnc(C(F)(F)F)c(C)c2C(=O)Nc2cccc(S(C)(=O)=O)c2)c(C)c1F` [Compound 1427], the pIC50 reads like this: under setting [1], no less than 7.70; under setting [2], no less than 7.70.

`Cc1c(C(F)(F)F)nnc(Oc2ccc(C(N)=O)cc2)c1C(=O)Nc1cccc(S(C)(=N)=O)c1` (centres unmarked) [Compound 1513, 3-(4-carbamoylphenoxy)-N-{3-[imino(methyl)oxo-λ^6-sulfanyl]phenyl}-5-methyl-6-(trifluoromethyl)pyridazine-4-carboxamide]: the pIC50 is 6.30 to 6.70 under setting [1] and 6.30 to 6.70 under setting [2].

As for `NC(=O)c1cccc(NC(=O)c2cc(C(F)(F)F)cnc2OC23CC(C(F)(F)F)(C2)C3)c1` [Compound 1634], the pIC50 by setting is: under setting [1], 6.30 to 6.70; under setting [2], 6.30 to 6.70.
